Results: patent US9650339B2, “Inhibitors of histone demethylases” (Gilead Sciences, Inc., priority 2013, dated 2017)

How the values were obtained:
KDM4C (JMJD2C) = target: T1, KDM4C (JMJD2C) (Homo sapiens, UniProt Q9H3R0); experiment: Histone lysine demethylase AlphaLISA assay, KDM4C; format: biochemical; settings: read-out: KDM4C HDME Inhibition IC50
T1 sequence (Q9H3R0 1-349): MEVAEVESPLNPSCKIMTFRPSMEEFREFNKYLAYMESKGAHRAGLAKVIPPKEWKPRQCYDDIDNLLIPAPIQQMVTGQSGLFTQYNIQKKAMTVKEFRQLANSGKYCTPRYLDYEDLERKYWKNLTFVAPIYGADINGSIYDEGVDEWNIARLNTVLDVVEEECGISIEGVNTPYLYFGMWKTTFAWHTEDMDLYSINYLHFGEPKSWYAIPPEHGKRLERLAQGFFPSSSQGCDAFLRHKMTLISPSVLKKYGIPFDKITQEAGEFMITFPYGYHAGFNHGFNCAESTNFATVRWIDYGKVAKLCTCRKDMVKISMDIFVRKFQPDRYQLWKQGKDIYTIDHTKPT
Summary of the method: (§1)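 Steps: enzyme equilibrated 10 min in buffer; compounds in 3% DMSO solution added, 10 min; substrate mix added (peptide, 25 μM L-Asc, 10 μM α-KG), room temperature; acceptor beads, then streptavidin donor beads, dark incubations; plate read.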

KDM7 (PHF8) = target: T2, KDM7 (PHF8) (Homo sapiens, UniProt Q9UPP1); experiment: Histone lysine demethylase AlphaLISA assay, KDM7; format: biochemical; settings: read-out: PHF8 HDME Inhibition IC50
T2 construct: KDM7 (PHF8); BRIC; 1-1322; Bac
T2 sequence (Q9UPP1 37-440 limits assumed): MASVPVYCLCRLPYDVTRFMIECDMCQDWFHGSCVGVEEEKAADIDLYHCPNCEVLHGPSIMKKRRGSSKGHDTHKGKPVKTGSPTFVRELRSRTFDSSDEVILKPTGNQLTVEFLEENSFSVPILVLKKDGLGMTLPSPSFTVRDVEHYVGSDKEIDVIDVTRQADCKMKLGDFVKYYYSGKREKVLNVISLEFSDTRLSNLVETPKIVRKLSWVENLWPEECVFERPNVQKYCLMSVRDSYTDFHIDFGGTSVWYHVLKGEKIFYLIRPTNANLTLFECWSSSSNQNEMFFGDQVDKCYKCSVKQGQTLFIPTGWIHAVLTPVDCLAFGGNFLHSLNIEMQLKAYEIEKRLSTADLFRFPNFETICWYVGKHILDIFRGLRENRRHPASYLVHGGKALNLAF
Summary of the method: as §1

KDM4C = target: T3, KDM4C (Homo sapiens, UniProt Q9H3R0); experiment: Histone lysine demethylase immunofluorescence assay, U2OS cells transfected with KDM4C; format: cell-based; settings: U2OS cells transfected with pCMVHA KDM4C; mark detected H3K9me3; 20 hours
T3 construct: Full length; host or cells: U2OS
T3 sequence (Q9H3R0 1-1056): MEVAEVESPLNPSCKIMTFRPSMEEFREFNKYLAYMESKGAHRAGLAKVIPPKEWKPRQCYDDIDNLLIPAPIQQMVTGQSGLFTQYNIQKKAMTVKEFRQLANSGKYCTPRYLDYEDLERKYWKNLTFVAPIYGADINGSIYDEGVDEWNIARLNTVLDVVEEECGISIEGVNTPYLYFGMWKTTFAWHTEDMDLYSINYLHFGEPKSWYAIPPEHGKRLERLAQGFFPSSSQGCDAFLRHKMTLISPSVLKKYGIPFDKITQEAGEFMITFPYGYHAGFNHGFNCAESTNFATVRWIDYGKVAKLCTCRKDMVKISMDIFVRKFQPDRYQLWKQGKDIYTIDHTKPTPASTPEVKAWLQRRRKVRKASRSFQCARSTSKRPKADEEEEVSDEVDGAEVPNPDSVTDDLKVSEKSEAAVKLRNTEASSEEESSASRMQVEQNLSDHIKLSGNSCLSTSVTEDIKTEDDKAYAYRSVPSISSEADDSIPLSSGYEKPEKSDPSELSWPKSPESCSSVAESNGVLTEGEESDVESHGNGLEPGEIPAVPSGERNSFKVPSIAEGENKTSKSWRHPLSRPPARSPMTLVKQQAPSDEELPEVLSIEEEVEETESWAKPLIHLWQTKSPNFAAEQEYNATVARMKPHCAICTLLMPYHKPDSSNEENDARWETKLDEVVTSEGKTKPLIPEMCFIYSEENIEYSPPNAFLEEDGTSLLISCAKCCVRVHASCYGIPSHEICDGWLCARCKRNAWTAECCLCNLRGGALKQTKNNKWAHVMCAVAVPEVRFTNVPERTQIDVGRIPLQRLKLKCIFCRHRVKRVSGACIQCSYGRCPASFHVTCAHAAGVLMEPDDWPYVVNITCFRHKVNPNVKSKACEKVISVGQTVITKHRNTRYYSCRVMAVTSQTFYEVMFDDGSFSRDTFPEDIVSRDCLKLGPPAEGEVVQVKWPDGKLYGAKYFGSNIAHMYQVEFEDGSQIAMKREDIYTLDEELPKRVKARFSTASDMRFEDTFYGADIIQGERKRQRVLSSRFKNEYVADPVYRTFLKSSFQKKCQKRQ
Summary of the method: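 U2OS cells were transiently transfected with HA-tagged demethylase and reseeded after 6 h into compound-containing DMEM/10% FBS for 20 h. Cells were fixed in formaldehyde and immunostained for HA and the relevant histone methyl mark, then imaged. IC50 is based on mean mark staining in HA+ transfected cells.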

SMILES | IC50 (KDM4C (JMJD2C)) [µM] | IC50 (KDM7 (PHF8)) [µM] | IC50 (KDM4C) [µM]
O=Cc1ccnc(CNCC(=O)N2CCC[C@@H]2CN2CCCC2)c1 [Compound 102, 2-[({2-oxo-2-[(2R)-2-(pyrrolidin-1-ylmethyl)pyrrolidin-1-yl]ethyl}amino)-methyl]pyridine-4-carbaldehyde] | < 0.25 | > 2.5 | 0.25 to 2.5
CN1CCN(C(=O)CNCc2cc(C=O)ccn2)CC1 [Compound 103, 2-({[2-(4-methylpiperazin-1-yl)-2-oxoethyl]-amino}methyl)-pyridine-4-carbaldehyde] | > 2.5 | > 2.5 | > 2.5
CCN1CCCC1CNC(=O)CNCc1cc(C=O)ccn1 (stereo not drawn) [Compound 104, N-[(1-ethylpyrrolidin-2-yl)methyl]-2-{[(4-formylpyridin-2-yl)methyl]amino}-acetamide] | 0.25 to 2.5 | 0.25 to 2.5 | > 2.5
O=Cc1ccnc(CNCC(=O)N2CCC(Cc3ccccc3)CC2)c1 [Compound 106, 2-({[2-(4-benzylpiperidin-1-yl)-2-oxoethyl]-amino}methyl)-pyridine-4-carbaldehyde] | 0.25 to 2.5 | 0.25 to 2.5 | > 2.5
CN(CC(=O)N1CCCCC1)Cc1cc(C=O)ccn1 [Compound 120, 2-({methyl[2-oxo-2-(piperidin-1-yl)ethyl]amino}-methyl)pyridine-4-carbaldehyde] | > 2.5 | 0.25 to 2.5 | > 2.5

The remaining lines, values ahead:

IC50 (KDM4C (JMJD2C)) [µM] | IC50 (KDM7 (PHF8)) [µM] | IC50 (KDM4C) [µM] | SMILES
> 2.5 | > 2.5 | 0.25 to 2.5 | CCN(CC)CCCCNCc1cc(C=O)ccn1 [Compound 107, 2-({[4-(diethylamino)-butyl]amino}-methyl)pyridine-4-carbaldehyde]
> 2.5 | > 2.5 | 0.25 to 2.5 | CN(C)CCCCNCc1cc(C=O)ccn1 [Compound 108, 2-({[4-(dimethylamino)-butyl]amino}methyl)-pyridine-4-carbaldehyde]
> 2.5 | > 2.5 | > 2.5 | CN(C)CCNCc1cc(C=O)ccn1 [Compound 110, 2-({[2-(dimethylamino)-ethyl]amino}methyl)-pyridine-4-carbaldehyde]
> 2.5 | > 2.5 | > 2.5 | O=Cc1ccnc(CNCCCN2CCCC2)c1 [Compound 111, 2-({[3-(pyrrolidin-1-yl)propyl]amino}-methyl)pyridine-4-carbaldehyde]
0.25 to 2.5 | < 0.25 | > 2.5 | CCN(CC)CCCCNC(=O)CNCc1cc(C=O)ccn1 [Compound 112, N-[4-(diethylamino)-butyl]-2-{[(4-formylpyridin-2-yl)methyl]amino}-acetamide]
0.25 to 2.5 | > 2.5 | > 2.5 | CN(C)CCCCCNCc1cc(C=O)ccn1 [Compound 114, 2-({[5-(dimethylamino)-pentyl]amino}methyl)-pyridine-4-carbaldehyde]
> 2.5 | 0.25 to 2.5 | 0.25 to 2.5 | CCN(CC)CCCCN(Cc1cc(C=O)ccn1)C(=O)C(F)(F)F [Compound 115, N-[4-(diethylamino)butyl]-2,2,2-trifluoro-N-[(4-formylpyridin-2-yl)methyl]acetamide]
< 0.25 | 0.25 to 2.5 | 0.25 to 2.5 | CCN(CC(C)(C)N(C)C)C(=O)CNCc1cc(C=O)ccn1 [Compound 118, N-[2-(dimethylamino)-2-methylpropyl]-N-ethyl-2-{[(4-formylpyridin-2-yl)methyl]amino}-acetamide]
